The values that follow come from a melting point compilation (Tetko et al.; mined from patent text by program, amines drawn as free bases though some values may be those of a salt).

A word on the melting point: it is the temperature, or range, at which the solid turns liquid. For `NC(=O)c1cccc(OCCCCCCBr)c1`, the melting point is 115 to 117 °C.

Take `COC(=O)Cc1cccc(OC)c1OCCCc1cc(O)nn1Cc1ccc(Cl)cc1Cl`: the melting point is 110 to 111 °C. With `O=C(OC1CCCCC1=O)c1cccc2ccccc12` (stereo not given) the figure was 94 to 95 °C. Molecule `Cc1ccc(Oc2c(Cl)c(Oc3ccc(C)cc3)c(Oc3ccc(C)cc3)c(C#N)c2C#N)cc1` registered a melting point of 142 to 145 °C. Take `COc1cc(Nc2ncc3cc(-c4c(Cl)cccc4Cl)c(=O)n(C)c3n2)cc(OC)c1`: the melting point is 228 to 230 °C. `CCOC(=O)C1=C(N)NC2=C(C(=O)CCC2)C1c1ccccc1N=[N+]=[N-]` (stereo not given) registered a melting point of 209 °C. The molecule `Cc1ccc(N2C(=O)C(O)=C(C(=O)c3ccc(OC(F)(F)F)cc3)C2c2ccc(Cn3ccnn3)cc2)nn1` (stereo not given) had a melting point of 275 °C. In turn, `CC(=O)N[C@@H](CSc1ccccc1[N+](=O)[O-])C(=O)O` returned a melting point of 175 to 176 °C. In turn, `O=C(O)c1ccc2c(c1)C=CC(=CCl)CO2` registered a melting point above 260 °C. With `COc1ccc(C2(c3ccc(OC)cc3)CC(C)N=C2NC(=O)c2cc(C)[nH]n2)cc1` (stereo not given) the figure was 173 °C.

`Cc1ccc2c(c1O)NC(S(=O)O)C1CC(C=CC(N)=O)=CN1C2=O` (stereo not given) registered a melting point of 252 to 255 °C. The molecule `C#CCOc1ccc(NCc2ccccc2)c(C(=O)c2ccc(C3CC3)cc2)c1` had a melting point of 116 to 118 °C.

`CSc1sc(-c2ccncc2)c2c1C(=O)CCC2`: the melting point is 115 to 116 °C. In turn, `Cc1oc(-c2ccccc2)nc1C(O)COc1ccc(C=C2SC(=S)NC2=O)nc1` (stereo not given) came in with a melting point of 218 °C. In the case of `CC(=O)Nc1noc(C)c1Cl`, the melting point lay within 121 to 122 °C. `O=C(Nc1ccc2cn[nH]c2c1)C(=O)N1CCC(Cc2ccccc2)CC1` showed a melting point of 160 to 164 °C. With `OCc1cc2c(F)ccc(Br)c2s1`, the melting point lay within 80 to 81 °C. `Cc1c(N)cc(Cl)cc1N` registered a melting point of 75 to 77 °C. `Cc1nc(C)c(C(C)(O)c2ccoc2)s1` (stereo not given) registered a melting point of 104 to 105 °C. For the molecule `COc1cccc([C@H]2O[C@H](CC(=O)Nc3cccc(CCC(=O)O)c3)C(=O)N(CC(C)(C)C)c3ccc(Cl)cc32)c1OC`, the melting point was in the range of 172 to 173 °C. `CCCCOC(=O)Cc1ccc(N[C@@H](CCC(N)=O)C(=O)O)cc1` displayed a melting point of 177 to 179 °C. As for `CCOC(=O)c1cccc(Cn2cnc3ccncc32)c1`, the melting point fell in the range of 102 to 104 °C. Turning to `CCNCCCN1c2ccccc2N(C)C(=O)c2c(C)cc(C)nc21`, the melting point fell in the range of 101 to 103 °C. With `CN(O)C(=O)NCCc1ccc(Cl)c(Cl)c1` the figure was 108 to 109 °C; with `O=C1C(Cl)=C(c2ccccc2)C1(F)F`, 77.5 to 78 °C.

Consider `CCOC(=O)c1sc(-c2cccn2C)nc1-c1ccccc1`, for which the melting point was in the range of 86 to 89 °C. With `COc1cccc(C2(C(C)(C)O)CCN(C)CC2)c1OC` the figure was 97 °C. In turn, `Nc1ncc(S(=O)(=O)Nc2ccc(Br)c3c(Cl)c[nH]c23)cn1` came in with a melting point of 285 to 289 °C. Consider `CCOC(=O)CNC(=O)n1nc(Oc2c(Cl)cc(C(F)(F)F)cc2Cl)cc1C`, for which the melting point is 50 to 53 °C. In turn, `CCn1cc(C(=O)O)c(=O)c2cc(F)c(N3CCC(NC(=O)OC(C)(C)C)C3)c(C)c21` (stereo not given) gave a melting point of 184 to 188 °C.

In the case of `CCOc1ccc(F)cc1C(=O)c1sc2ncc(C#N)cc2c1N`, the melting point came to 196 °C. In turn, `O=C(N=c1sc2cc(OC(F)(F)F)ccc2n1CCCO)C(F)(F)F` registered a melting point of 144 °C. Molecule `CCC1(CCCCN2CCN(c3ccc(F)cc3)CC2)C(=O)Nc2ccccc21` (stereo not given) displayed a melting point of 118 to 119 °C. With `CC(=O)Nc1ccc(C(=O)N2CC3CNCC(C3)C2)cc1`, the melting point lay within 186 to 189 °C.

`CCOC(=O)C1=C(C)NC(C)=C(C(=O)OCC)C1c1ccccc1Br`: the melting point is 144 to 145 °C. The molecule `CS(=O)c1cccc(-n2c(=O)n(Cc3ccncc3)c(=O)c3cccnc32)c1` (stereo not given) gave a melting point of 218 to 219 °C. As for `CC1(C)CCC(Cc2ccc(Cl)cc2)=CC1=O`, the melting point was 87 to 90 °C. For `O=C(NCC12CC3CC(CC(C3)C1)C2)c1cc(-c2ccccc2C(=O)O)ncc1Cl`, the melting point fell in the range of 134 to 138 °C.

The molecule `COCC1CN(c2ccc(C3CCN(Cc4ccccc4)CC3)cc2)C(=O)O1` (racemic) displayed a melting point of 175 to 177 °C. The molecule `CN1CCN(C(=O)C(C)(C)OCc2nn(Cc3ccccc3)c3ccccc23)CC1` yielded a melting point of 97 to 98 °C. With `Nc1cc(=O)n(CC2CCCCC2)c(=S)n1CC1CCCCC1` the figure was 147 to 150 °C.

Turning to `O=C1c2cc3cc(O)ccc3n2CC1CC1CCN(Cc2ccccc2)CC1` (stereo not given), the melting point fell in the range of 186 to 188 °C. Molecule `CCC1C(C=O)=NN=C(c2ccc(OC)c(OC)c2)c2cc(OC)c(OC)cc21` (stereo not given) showed a melting point of 103 to 105 °C. For the molecule `COC(=O)Cc1ccc(Sc2ccccc2C(=O)N(C)C)c([N+](=O)[O-])c1`, the melting point was in the range of 124 to 125 °C. Consider `O=C(O)CCCCCCCCCCCCCCCCCCC(=O)ON1C(=O)CCC1=O`, for which the melting point was 122 to 124 °C.

`Clc1ccc2c(c1)N=C(NCc1cccnc1)c1ccccc1O2`: the melting point fell in the range of 167 to 169 °C. Molecule `CN(C)CC(O)CC1(O)c2ccccc2CCc2ccccc21` (stereo not given) displayed a melting point of 144 to 146 °C. Take `O=C(O)CC1(S)C2CC3CC(C2)CC1C3` (stereo not given): the melting point fell in the range of 178 to 180 °C. Molecule `CCOC(=O)c1cc2c3n(ccc-2n1)CC(CO)=N3` gave a melting point of 227 to 229 °C. `CCC1(CCSC(C)=O)C(=O)N2CCCC(C(=O)OC(C)(C)C)N2C1=O` (stereo not given) came in with a melting point of 82 to 84 °C. `CCn1c(C)c(C)c(=O)c(C(=O)O)c1-c1ccc(Cl)cc1`: the melting point lay within 240 to 242 °C. The figure for `Cc1ccc(C2N=C(c3ccccc3)NC3=C2CCc2c(-c4ccccc4)cc(-c4ccccc4)nc23)cc1` (stereo not given) is 128 to 133 °C; for `CC(Cl)(Cl)C(=O)NC(=O)C(N)=O` it is 110 °C.

The molecule `C=CCOc1cccc(C(=O)c2ccccc2C(=O)OC)c1` came in with a melting point of 50 to 52 °C.

Molecule `CN1Cc2c(-c3noc(CCl)n3)ncn2-c2cccc(Br)c2C1=O` registered a melting point of 242 to 244 °C. With `CC(=O)Nc1ccc(Oc2ccc3nc(COc4ccc(CC5SC(=O)NC5=O)cc4)n(C)c3c2)cc1` (stereo not given), the melting point fell in the range of 92.2 to 95 °C.

In turn, `CCCCCC(O)CCn1[nH]c(=O)n(C)c1=O` (stereo not given) had a melting point of 85 to 88 °C. In the case of `C=Cc1ccc(NC(=O)N2CCN(c3ncnc4cc(OC)c(OC)cc34)CC2)cc1`, the melting point is 214 to 216 °C. Take `CC(C)(C)c1ccc(-c2cccc(-c3ccccc3)c2CC(=O)NC(=N)N)cc1`: the melting point was in the range of 171 to 174 °C. The molecule `O=c1cc(-c2ccncc2)nc2n1CCN2CCCc1c[nH]c2ccccc12` displayed a melting point of 218 to 220 °C. Turning to `Nc1cc(Cl)c(S(N)(=O)=O)cc1N`, the melting point was found to be 216 °C. For `Nc1ccc(C(=O)O)c2c1OCCO2`, the melting point was determined as 186 °C. In turn, `Fc1ccc(-c2nc(=S)n(Cc3ccccc3)[nH]2)c(Cl)c1` returned a melting point of 135 to 136 °C.

`Cc1nc2ccccn2c(=O)c1CCN1CCC(c2coc3cc(F)ccc23)CC1` came in with a melting point of 160 °C. Regarding `Cc1nnc2n1-c1sc3c(c1C(c1ccccc1Cl)=NC2)CCN(C(=S)Nc1ccccc1C(F)(F)F)C3`, the melting point is 190 to 192 °C. For the molecule `c1nc(SC2CCCCC2)c2cc[nH]c2n1`, the melting point lay within 162 to 163 °C.

As to `O=C(NC1=NN(c2ccc(C(=O)C(F)(F)F)cc2)CC1)C(F)(F)F`, the melting point is 228 to 230 °C.

`CSc1nc2cc(Cl)c(Cl)cc2n1C1OC(CO)C(O)C1O` (stereo not given) came in with a melting point of 204 to 206 °C. `Brc1ccc(C2CCN(C3CCC3)CC2)nc1` displayed a melting point of 122 to 124 °C.

Turning to `CCCCc1nc(Cl)c(C=O)n1Cc1cccc2c1ncn2-c1ccccc1C#N`, the melting point is 117 to 135 °C. For the molecule `CCNc1nc(CC)c(C(=O)c2ccc(Cl)c([N+](=O)[O-])c2)s1`, the melting point is 149 to 152 °C. The molecule `CC(=O)N1CCN(Cc2cnc(-c3cc4c(C)ccc(N(C)S(=O)(=O)c5cccs5)c4[nH]3)s2)CC1` registered a melting point of 171 to 172 °C. The figure for `COC(=O)c1ccccc1-c1nn[nH]n1` is 132 to 135 °C; for `CCOC(=O)C1=CC2=C(C)C(C)(OC)C=C(C)C2=N1` (stereo not given) it is 182 to 183 °C; for `COC(=O)c1sc2cc([N+](=O)[O-])ccc2c1N` it is 169 to 170 °C. `O=C(O)C1CCCN1C(=O)c1ccc(-c2ccccc2)cc1` (stereo not given): the melting point was determined as 160 °C.

In turn, `CC(C)c1cccc(C(C)C)c1N1C(=O)c2cccc3c(Br)ccc(c23)C1=O` came in with a melting point of 277 °C. Molecule `COc1ccc(-c2ccc(NN)nn2)cc1OC(C)C` came in with a melting point of 116 °C. As to `Cc1cc(S(=O)(=O)Nc2cccc(Br)c2)c2c(C)ccc(C(C)C)cc1-2`, the melting point was 172 to 174 °C. The figure for `COc1ccccc1N1CCN(CC2(C)N=C(c3cccnc3)NC2=O)CC1` (stereo not given) is 159 to 162 °C; for `O=C(c1ccncc1)c1cc(-c2cccnc2)c(N2CCOCC2)s1` it is 128 °C; for `CC1Cc2ccc([Si](C)(C)C)c(S(N)(=O)=O)c2S1(=O)=O` (stereo not given) it is 171 to 172 °C. With `COc1cc(-c2ncc(S(C)=O)cc2Cl)c(F)cc1Cl` (stereo not given), the melting point was 117 to 118 °C. The figure for `CCc1cnc2c(NC(=O)c3c(Cl)cccc3Cl)cccc2c1C(C)=O` is 194 to 195 °C. In turn, `O=C(O)c1ccc2c(CCNCc3cccc(OCC(F)(F)F)c3)c[nH]c2c1` registered a melting point of 232 to 235 °C. Consider `O=C1Nc2ccc(Cl)cc2N2CCNCC12` (stereo not given), for which the melting point lay within 300 to 303 °C. With `FC(F)(F)CN1CCOC(CN2c3ccccc3C=Cc3ccccc32)C1` (stereo not given), the melting point was 97 to 98 °C.

For `CSC(SC)=C(C(=O)C(C)(C)C)n1cncn1`, the melting point came to 60 °C.

The molecule `Cc1cccnc1NC(=O)CN1C[C@@H](C)N(c2ncnc3sccc23)[C@@H](C)C1` came in with a melting point of 157 to 159 °C. In turn, `Cc1nc2c(O)c(C(=O)[C@@H]3OC(C)(C)O[C@H]3c3ccccc3)ccc2n1C` displayed a melting point of 233 °C.
